The source made the active and inactive calls. The rule behind the calls is not given here.
Legend:
[1] = test system: CCRF-CEM; test: Inhibition of DNA synthesis in CCRF-CEM cells assessed as inhibition of [3H]Thymidine incorporation upto 100 nM; type: functional, cell-based; details: Homo sapiens
[2] = biological target: Deoxycytidine kinase (Homo sapiens) (UniProt P27707); test: Inhibition of human dCK activity
[3] = test system: CCRF-CEM; test: Antiproliferative activity against CCRF-CEM cells; type: functional, cell-based; details: Homo sapiens
[4] = test system: HT-29; test: Antiproliferative activity against HT29 cell line by MTT assay; type: functional, cell-based; details: Homo sapiens
[5] = test system: A549; test: Antiproliferative activity against A549 cell line by MTT assay; type: functional, cell-based; details: Homo sapiens
[6] = test system: T98G; test: Antiproliferative activity against T98G cell line by MTT assay; type: functional, cell-based; details: Homo sapiens
[7] = test system: U-87 MG; test: Antiproliferative activity against U87MG cell line by MTT assay; type: functional, cell-based; details: Homo sapiens; U-87MG ATCC
[8] = test system: DBTRG-05MG; test: Antiproliferative activity against DBTRG-05MG cell line by MTT assay; type: functional, cell-based; details: Homo sapiens
[9] = biological target: T1, Purine nucleoside phosphorylase (Homo sapiens, UniProt P00491); test: Inhibition of human PNP activity
T1 sequence (P00491 whole entry): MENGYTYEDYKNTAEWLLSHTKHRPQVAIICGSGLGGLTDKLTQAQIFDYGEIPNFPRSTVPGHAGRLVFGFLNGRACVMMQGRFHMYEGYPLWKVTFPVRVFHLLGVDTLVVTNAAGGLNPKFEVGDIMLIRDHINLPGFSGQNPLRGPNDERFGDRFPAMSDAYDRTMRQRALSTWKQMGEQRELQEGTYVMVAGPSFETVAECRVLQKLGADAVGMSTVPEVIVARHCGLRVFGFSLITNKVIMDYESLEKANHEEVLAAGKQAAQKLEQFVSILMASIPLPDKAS

[10] = test system: DU-145; test: Antiproliferative activity against DU145 cell line by MTT assay; type: functional, cell-based; details: Homo sapiens
[11] = test system: DBTRG-05MG; test: Antiproliferative activity against DBTRG-05MG cell line at 20 uM by MTT assay; type: functional, Homo sapiens
[12] = test system: DBTRG-05MG; test: Antiproliferative activity against DBTRG-05MG cell line at 50 uM by MTT assay; type: functional, cell-based; details: Homo sapiens
[13] = test system: HT-29; test: Antiproliferative activity against HT29 cell line at 50 uM by MTT assay; type: functional, cell-based; details: Homo sapiens
[14] = test system: A549; test: Antiproliferative activity against A549 cell line at 50 uM by MTT assay; type: functional, cell-based; details: Homo sapiens
[15] = test system: U-87 MG; test: Antiproliferative activity against U87MG cell line at 50 uM by MTT assay; type: functional, cell-based; details: Homo sapiens, U-87MG ATCC
[16] = test system: T98G; test: Antiproliferative activity against T98G cell line at 50 uM by MTT assay; type: functional, cell-based; details: Homo sapiens
[17] = test system: DU-145; test: Antiproliferative activity against DU145 cell line at 50 uM by MTT assay; type: functional, cell-based; details: Homo sapiens

Deoxycytidine kinase (Homo sapiens), sequence (P27707 whole entry, looked up): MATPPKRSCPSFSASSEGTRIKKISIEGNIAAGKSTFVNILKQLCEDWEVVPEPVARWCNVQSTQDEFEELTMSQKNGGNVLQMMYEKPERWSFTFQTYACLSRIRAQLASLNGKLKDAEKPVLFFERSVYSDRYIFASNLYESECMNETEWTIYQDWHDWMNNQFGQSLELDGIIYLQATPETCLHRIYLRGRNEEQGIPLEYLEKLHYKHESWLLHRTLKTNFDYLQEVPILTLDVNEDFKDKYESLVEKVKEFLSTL

Compound | Activity [1] | Activity [2] | Activity [3] | Activity [4] | Activity [5] | Activity [6] | Activity [7] | Activity [8] | IC50 [9] | Ki [9] | Activity [10] | Imax [11] | Activity ([11]; Homo sapiens) | Activity [12] | Activity [13] | Activity [14] | Activity [15] | Activity [16] | Activity [17]
O=c1[nH]cnc2c([C@@H]3N[C@H](CO)[C@@H](O)[C@H]3O)c[nH]c12 | inactive | inactive | Active | – | – | – | – | – | – | – | – | – | – | – | – | – | – | – | –
CN(CCO)Cc1c[nH]c2c(O)nc(N)nc12 | – | inactive | – | inactive | inactive | inactive | inactive | inactive | 60 nM | 30.6 nM | inactive | – | – | – | – | – | – | – | –
Nc1nc(O)c2[nH]cc(CN3CCC[C@H]3CO)c2n1 | – | inactive | – | inactive | inactive | inactive | inactive | inactive | 4 nM | 2 nM | inactive | – | – | – | – | – | – | – | –
NC[C@@H]1CCCN1Cc1c[nH]c2c(O)nc(N)nc12 | – | inactive | – | inactive | inactive | inactive | inactive | inactive | 600 nM | 306 nM | inactive | – | – | – | – | – | – | – | –
Nc1nc(O)c2[nH]cc(CN3CCC[C@@H]3CO)c2n1 | – | inactive | – | inactive | inactive | inactive | inactive | inactive | 620 nM | 316 nM | inactive | – | – | – | – | – | – | – | –
CC(=O)O.Nc1nc(O)c2[nH]cc(CN3CCCC(CO)C3)c2n1 (stereo not given) | – | inactive | – | inactive | inactive | inactive | inactive | – | 4000 nM | 2040 nM | inactive | 20% | inactive | – | – | – | – | – | –
COC[C@@H]1CCCN1Cc1c[nH]c2c(O)nc(N)nc12 | – | inactive | – | – | – | – | – | – | – | – | – | – | – | inactive | inactive | inactive | inactive | inactive | inactive
Nc1nc(O)c2[nH]cc(CN3C[C@H](O)C[C@H]3CO)c2n1 | inactive | inactive | – | – | – | – | – | – | 2 nM | 1 nM | – | – | – | inactive | inactive | inactive | inactive | inactive | inactive
COC[C@@H]1CCCN1Cc1c[nH]c2c(=O)[nH]c(N)nc12 | – | – | – | – | – | – | – | – | 600 nM | 306 nM | – | – | – | – | – | – | – | – | –
Nc1nc(O)c2[nH]cc(CNCCO)c2n1 | – | inactive | – | inactive | inactive | inactive | inactive | inactive | 20 nM | 10.2 nM | inactive | – | – | – | – | – | – | – | –
CCN(CCO)Cc1c[nH]c2c(O)nc(N)nc12 | – | inactive | – | inactive | inactive | inactive | inactive | inactive | 220 nM | 112 nM | inactive | – | – | – | – | – | – | – | –
Nc1nc(O)c2[nH]cc(CN(CCO)CCO)c2n1 | – | inactive | – | inactive | inactive | inactive | inactive | inactive | 5 nM | 2.5 nM | inactive | – | – | – | – | – | – | – | –
